Experimental data: patent US20130072505A1, “6,9-Disubstituted Purine Derivatives and Their Use for Treating Skin” (priority 2006, published 2013)

Key:
[1] = system: Human diploid fibroblasts (HCA cells); test: inhibition of senescence, β-galactosidase staining; type: cell-based; conditions: test compounds about 50 μM at each passage; for Senescent Cells (%) HCA25: passage 25; for Senescent Cells (%) HCA80: passage 80
Experimental: Inhibition of senescence by several of the 6,9-disubstituted purine derivatives of this invention was determined; kinetin was also evaluated as a control. […] The medium used for the cell cultivation was removed, the cells were washed twice in PBS, and fixed in 2-3 ml of fixing solution comprised of a 2% formaldehyde and 0.2% glutaraldehyde in PBS. The cells were incubated at room temperature for 5 minutes, and then washed twice with PBS. The cells were subsequently incubated at 37° C. (without CO2) for 1 to 16 hours in 2-3 ml of the solution comprising potassium ferricyanide (5 mM), potassium ferrocyanide (5 mM), MgCl2 (2 mM), X-gal (5-bromo-4-chloro-3-indolyl-β-D-galactopyranoside) (1 mg/ml), in citric/phosphate buffer (pH 6.0). The test compounds (about 50 μM) were added to the medium at each passage. […] In this experiment, only senescent cells were stained blue due to the action of β-galactosidase on the substrate.

[2] = system: mouse fibroblasts NIH3T3; test: in vitro cytotoxic activity, Calcein AM microtiter assay; type: cell-based; conditions: NIH3T3, 72 hours, highest concentration 166.7 μM, read-out: GI50 NIH-3T3
Experimental: (§1) In vitro cytotoxic activity of several of the 6,9-disubstituted purine derivatives of this invention was determined using a microtiter assay with Calcein AM and a panel of cell lines of different histogenetic and species origin; kinetin was also examined as a control. Because only metabolically active cells cleave Calcein AM (tetraacetoxymethyl ester of calcein), the intracellular concentration of calcein corresponds to the number of vital cells in the culture.
(§2) The following cell lines were used: human osteosarcoma (HOS); breast carcinoma MCF-7; human myeloid leukemia K-562; and mouse fibroblasts NIH3T3. The cells were maintained in Nunc/Corning 80 cm^2 plastic tissue culture flasks and cultured in cell culture medium (DMEM with 5 g/l glucose, 2 mM glutamine, 100 U/ml penicillin, 100 μg/ml streptomycin, 10% fetal calf serum, and sodium bicarbonate).
(§3) The cell suspensions were prepared and diluted according to the particular cell type and the expected target cell density (2.500-30.000 cells per well based on cell growth characteristics) were added by pipette (80 μl) into 96/well microtiter plates. Inoculates were allowed a pre-incubation period of 24 hours at 37° C. and 5% CO2 for stabilization. Four-fold dilutions of the intended test concentration were added at time zero in 20 μl aliquots to the microtiter plate wells. The test compounds were generally evaluated at six 4-fold dilutions. The highest well concentration used in the present study was 166.7 μM. All samples were examined in triplicates. Incubations of cells with the tested compounds was for 72 hours at 37° C., in 5% CO2 atmosphere and 100% humidity. At the end of the incubation period, Calcein AM was added to a final concentration of 1 μg/ml incubated for 1 hour. Fluorescence intensity (FI) was measured with a Labsystem FIA Reader Fluoroscan Ascent (UK). The cell survival (GI50) was calculated using the following equation: GI50=([…])/(mean FIcontrol well−mean FIblank)×100%. The GI50 value, the drug concentration lethal to 50% of the cells, was calculated from the obtained dose response curves.

[3] = system: human osteosarcoma (HOS); test: as above; type: cell-based; conditions: 72 hours, highest concentration 166.7 μM
Experimental: as §1, §2, §3

[4] = system: breast carcinoma MCF-7; test: as above; type: cell-based; conditions: Homo sapiens, MCF7; 72 hours; highest concentration 166.7 μM
Experimental: as §1, §2, §3

[5] = system: Human forskin fibroblasts (cell line BJ); test: in vitro cytotoxic activity, MTT assay; type: cell-based; conditions: 72 hours, BJ fibroblasts at middle passage
Experimental: In vitro cytotoxic activity of several of the 6,9-disubstituted purine derivatives of this invention against human diploid fibroblasts was determined by standard MTT assay optimized for 96-well plates. The assay is based on spectrofotometric measurement of the product of metabolic conversion of MTT by mitochondria of living cells.
Human forskin fibroblasts (cell line BJ) at middle passage were maintained in 75 cm^2 plastic tissue culture flasks and cultured in cell culture medium (DMEM with 5 g/l glucose, 2 mM glutamine, 100 U/ml penicillin, 100 μg/ml streptomycin, 10% fetal calf serum, and sodium bicarbonate).
About 5,000 cells were seeded per well of the 96-well plate. After 24 hours the cell culture medium was replaced with the cell culture medium containing a test compound. The test compounds were evaluated at six 2-fold dilutions. The highest concentration used in the present study was usually 200 μM. In the case of compounds with limited solubility in the culture medium the highest concentration was adjusted. Every test compound was examined in five replicates. Cells with the test compounds were incubated for 72 hours at 37° C. in 5% CO2 atmosphere and 100% humidity. At the end of the incubation period, the culture medium was replaced with the cell culture medium containing MTT (0.5 mg/ml) and cells were incubated for another 3 hours. The formazan formed was solubilized by DMSO and absorbance at 570 nm was measured. Ability of the tested compounds to inhibit MTT reducing activity of the cells was calculated as IC=(Acompound exposed well−mean Ablank)/(mean Acontrol well−meanAblank)×100%. IC10, the drug concentration causing 10% decrease in MTT reducing activity, was calculated from the obtained dose response curves.

[6] = system: Rat C6 glioma (ATCC No. CCL107); test: anti-inflammatory activity: isoproterenol-induced intracellular cAMP synthesis; type: cell-based; conditions: cAMP after 30 min with (−)-isoproterenol; for IC50: Rattus norvegicus, C6 glioma, 0.5 h, read-out: Anti-inflammatory Activity I50
Experimental: Anti-inflammatory activity of several of the 6,9-disubstituted purine derivatives of this invention was determined; kinetin was also evaluated as a control. Rat C6 glioma (ATCC No. CCL107) was cultivated in monolayer in serum-free chemically defined medium containing Ham's F10/minimal essential medium (1:1 v/v), 2 mM L-glutamine, 1% (v/v) minimal essential medium vitamins (100×), 1% (v/v) minimal essential medium nonessential amino acids (100×), 100 U/ml penicillin, […], and 30 nM sodium selenite. Incubation was performed at 37° C. in a humidified atmosphere. The assays were performed in the logaritmic growth phase at a density of 2.5×10^5 cells/cm^2. Intracellular cAMP synthesis was induced by addition of 5 mM (−)-isoproterenol; various amounts of test compounds were added at the same time as the (−)-isoproterenol. After 30 min incubation at 37° C., the medium was removed and the cellular amount of cAMP was determined using the cAMP-enzyme immunoassay kit from Amersham. The I50 value was determined from a dose-response curve in duplicate.

melting point [°C]	SMILES	Senescent Cells (%) HCA50 [1] [%]	Senescent Cells (%) HCA25 [1] [%]	Senescent Cells (%) HCA80 [1] [%]	IC10 (concentration causing 10% decrease in MTT reducing activity) [5] [µM]	other results
142 to 143	COc1ccc(CNc2ncnc3c2ncn3C2CCCCO2)c(OC)c1OC (centres unmarked) [6-(2,3,4-trimethoxybenzylamino)-9-(2-tetrahydropyranyl)purine]	5	4	31		
	COc1cccc(CNc2ncnc3c2ncn3C2CCCCO2)c1OC (centres unmarked) [6-(2,3-dimethoxybenzylamino)-9-(2-tetrahydropyranyl)purine]					GI50 [2]: > 167 µM; GI50 [3]: > 167 µM; GI50 [4]: > 167 µM
	COc1cc(OC)c(OC)cc1CNc1ncnc2c1ncn2C1CCCCO1 (centres unmarked) [6-(2,4,5-trimethoxybenzylamino)-9-(2-tetrahydropyranyl)purine]				>200	
	COc1cc(OC)c(OC)cc1Nc1ncnc2c1ncn2C1CCCCO1 (centres unmarked) [6-(2,4,5-trimethoxyphenylamino)-9-(2-tetrahydropyranyl)purine]	4	5	25		
	COc1cc(OC)c(CNc2ncnc3c2ncn3C2CCCCO2)c(OC)c1 (centres unmarked) [6-(2,4,6-trimethoxybenzylamino)-9-(2-tetrahydropyranyl)purine]				>50	
	COc1ccc(CNc2ncnc3c2ncn3C2CCCCO2)c(OC)c1 (centres unmarked) [6-(2,4-dimethoxybenzylamino)-9-(2-tetrahydropyranyl)purine]	6	4	25	>25	
	COc1ccc(Nc2ncnc3c2ncn3C2CCCCO2)c(OC)c1 (centres unmarked) [6-(2,4-dimethoxyphenylamino)-9-(2-tetrahydropyranyl)purine]	4	4	29		
106 to 108	COc1ccccc1CNc1ncnc2c1ncn2C1CCCCO1 (centres unmarked) [6-(2-methoxybenzylamino)-9-(2-tetrahydropyranyl)purine]	6	4	22		
	COc1cc(CNc2ncnc3c2ncn3C2CCCCO2)cc(OC)c1OC (centres unmarked) [6-(3,4,5-trimethoxybenzylamino)-9-(2-tetrahydropyranyl)purine]					IC10 (concentration causing 10% decrease in MTT reducing activity) ([5]; highest tested concentration 100 µmol/l): >100 µM; IC10 (concentration causing 10% decrease in MTT reducing activity) ([5]; highest tested concentration 200 µmol/l): >200 µM
	COc1ccc(CNc2ncnc3c2ncn3C2CCCCO2)cc1OC (centres unmarked) [6-(3,4-dimethoxybenzylamino)-9-(2-tetrahydropyranyl)purine]				>200	
	COc1ccc(Nc2ncnc3c2ncn3C2CCCCO2)cc1OC (centres unmarked) [6-(3,4-dimethoxyphenylamino)-9-(2-tetrahydropyranyl)purine]	7	5	28		
	COc1cc(CNc2ncnc3c2ncn3C2CCCCO2)cc(OC)c1 (centres unmarked) [6-(3,5-dimethoxybenzylamino)-9-(2-tetrahydropyranyl)purine]				>200	GI50 [2]: > 167 µM; GI50 [3]: > 167 µM; GI50 [4]: > 167 µM; IC50 [6]: 11 µM; Anti-inflammatory Activity Effect [6]: Inhibition
87 to 88	COc1cccc(CNc2ncnc3c2ncn3C2CCCO2)c1 (centres unmarked) [6-(3-methoxybenzylamino)-9-(2-tetrahydrofuranyl)purine]					GI50 [2]: > 167 µM; GI50 [3]: > 167 µM; GI50 [4]: > 167 µM
134 to 135	COc1cccc(CNc2ncnc3c2ncn3C2CCCCO2)c1 (centres unmarked) [6-(3-methoxybenzylamino)-9-(2-tetrahydropyranyl)purine]	5	5	24	>100	IC50 [6]: 7 µM; Anti-inflammatory Activity Effect [6]: Inhibition
182 to 183	COc1ccc(CNc2ncnc3c2ncn3C2CCCO2)cc1 (centres unmarked) [6-(4-methoxybenzylamino)-9-(2-tetrahydrofuranyl)purine]					GI50 [2]: > 167 µM; GI50 [3]: > 167 µM; GI50 [4]: > 167 µM
128 to 129	c1coc(CNc2ncnc3c2ncn3C2CCCO2)c1 (centres unmarked) [6-furfurylamino-9-(2-tetrahydrofuranyl)purine]	4	3	12	>200	
	c1ccc(Nc2ncnc3c2ncn3C2CCCCO2)cc1 (centres unmarked) [6-phenylamino-9-(2-tetrahydropyranyl)purine]					IC50 [6]: 45 µM; Anti-inflammatory Activity Effect [6]: Inhibition
97 to 99	COc1ccccc1CNc1ncnc2c1ncn2C1CCCO1 (centres unmarked) [Example 8, 6-(2-methoxybenzylamino)-9-(2-tetrahydrofuranyl)purine]					
150 to 151	COc1ccc(Nc2ncnc3c2ncn3C2CCCCO2)cc1 (centres unmarked) [Example 10, 6-(4-methoxyphenylamino)-9-(2-tetrahydropyranyl)purine]					
150 to 152	COc1ccc(OC)c(CNc2ncnc3c2ncn3C2CCCCO2)c1 (centres unmarked) [Example 12, 6-(2,5-dimethoxybenzylamino)-9-(2-tetrahydropyranyl)purine]					
103 to 104	COc1ccc(OC)c(CNc2ncnc3c2ncn3C2CCCO2)c1 (centres unmarked) [Example 13, 6-(2,5-dimethoxybenzylamino)-9-(2-tetrahydrofuranyl)purine]					
140 to 141	COc1ccc(CNc2ncnc3c2ncn3C2CCCO2)c(OC)c1OC (centres unmarked) [Example 15, 6-(2,3,4-trimethoxybenzylamino)-9-(2-tetrahydrofuranyl)purine]					
